Here are results for eight compounds from patent publication US20060004207A1, “Preparation of new pharmaceutically suitable salt of losartan and forms thereof with new purification and isolation methods” (priority 2003, published 2006).

Each structure is given as a SMILES string. Like-named read-outs stand apart in the source and are kept apart here.

Series [1] in a line: Rate of dissolution of the substance, 75 mg in 50 ml 0.1 M HCl. Type of series: physicochemical.
Series [2] can be described thus: Solubility of crystalline forms of losartan potassium.
The conditions of series [3]: for Loss of weight: ~10 mBar. The protocol: The sample was exposed to temperatures between 60° C. and 80° C. and negative pressure ˜10 mBar.
For series [4] the following is noted: 10 g exposed to heat while dried. The protocol:
Temperature stability of the sample of polymorph Form Y was tested by exposing 10 g polymorph Form Y potassium salt of -n-butyl-4-chloro-5-hydroxymethyl-1-[[2′-(1H-tetrazol-5-yl)[1,1′-biphenyl]-4-yl]methyl]-1H-imidazole to heat while dried.

The nature of series [5]: Stability test, amorphous versus form with bound water, 4 days in air at 60/80° C., dry or moist. The note with it: for Physical form when exposed to moisture: 4 days. The format is physicochemical. The protocol: For evaluation and comparison, respectively, of the stability, four tests were conducted.
Series [6] is described as follows: Dynamic vapour sorption (DVS). Type of series: physicochemical. The protocol: Measurements were performed on instrument DVS—The Sorption Solution, Surface Measurement Systems Ltd. UK.
The principle of measurement is as follows: The sample measured is placed on one side of a very precise scale, a reference non-hydroscopic sample having been placed on the other side. The scale is located in an isolated chamber in which the relative humidity can be set. The hydroscopic sample being measured binds moisture from the environment, and an increase of mass is detected.
The ordinate axis represents the change of mass, abscise representing the humidity.

The solubility is how much of the substance goes into solution per volume. A high value points to a readily soluble substance.

Take `CCCCc1nc(Cl)c(CO)n1Cc1ccc(-c2ccccc2-c2nnn[n-]2)cc1.[K+]` [LST-K-1496/1, potassium salt of 2-n-butyl-4-chloro-5-hydroxymethyl-1-[[2′-(1H-tetrazol-5-yl)[1,1′-biphenyl]-4-yl]methyl]-1H-imidazole]: the “RATE OF DISSOLUTION” value in series [1] is listed as 13 min.

Regarding `CCCCc1nc(Cl)c(CO)n1Cc1ccc(-c2ccccc2-c2nn[nH]n2)cc1` [Form I, losartan potassium, reference compound], the “RATE OF DISSOLUTION” value in series [1] is given as 16 min. The solubility was 1.52 mg/mL in series [2] (0.1 M HCl, simulated gastric fluid) and 630 mg/mL in series [2] (water).

Consider `CCCCc1nc(Cl)c(CO)n1Cc1ccc(-c2ccccc2-c2nnn[n-]2)cc1.[K+]` [LST-K-1481, potassium salt of 2-n-butyl-4-chloro-5-hydroxymethyl-1-[[2′-(1H-tetrazol-5-yl)[1,1′-biphenyl]-4-yl]methyl]-1H-imidazole], for which the “RATE OF DISSOLUTION” value in series [1] is recorded as 14 min. The “SOLUBILITY in 0.1 M HCl” value in series [2] (in 0.1 M HCl) is 1.74 mg/mL.

Turning to `CCCCc1nc(Cl)c(CO)n1Cc1ccc(-c2ccccc2-c2nnn[n-]2)cc1.[K+]` [LST-K-3279, potassium salt of 2-n-butyl-4-chloro-5-hydroxymethyl-1-[[2′-(1H-tetrazol-5-yl)[1,1′-biphenyl]-4-yl]methyl]-1H-imidazole], in series [3] (45-day storage in a closed flask at room temperature), the “Polymorphic form after storage” value is given as “did not change its polymorphic forms”. For the same compound, the Loss of weight in series [3] (60° C.) came to 0.79%; in series [3] (80° C.), 0.90%. The “Crystalline structure after heat and negative pressure” value in series [3] (between 60° C. and 80° C., negative pressure ~10 mBar) is “did not change under any of the conditions”.

Consider `CCCCc1nc(Cl)c(CO)n1Cc1ccc(-c2ccccc2-c2nnn[n-]2)cc1.[K+]` [polymorph Form Y, potassium salt of 2-n-butyl-4-chloro-5-hydroxymethyl-1-[[2′-(1H-tetrazol-5-yl)[1.1′-biphenyl]-4-yl]methyl]-1H-imidazole], for which, in series [4], the “Polymorph form after exposure to heat while dried” value is “Polymorph Form X was obtained”.

Consider `CCCCc1nc(Cl)c(CO)n1Cc1ccc(-c2ccccc2-c2nn[nH]n2)cc1` [Milled sample of Form I, losartan potassium, reference compound], for which the “RATE OF DISSOLUTION” value in series [1] came to 8 min.

Turning to `CCCCc1nc(Cl)c(CO)n1Cc1ccc(-c2ccccc2-c2nn[nH]n2)cc1` [amorphous losartan potassium, losartan potassium], in series [5], the “Hygroscopicity (comparison)” value is reported as “essentially more hygroscopic than the form with bound water of losartan potassium”; the “Physical form when exposed to moisture” value was “merged into a glassy mass and then white crystals of form with bound water were formed”. In addition, the “Water content at repeated sorption, at which point the amorphous sample crystallizes” value in series [6] (at 60% relative humidity) was “approximately 13%”. In addition, the Weight increase in series [6] (at 70-80% relative humidity) was 20-26%. In addition, the “Absorption of water (increase of mass)” value in series [6] (at 80% relative humidity, first sorption) amounted to 25%.

Take `CCCCc1nc(Cl)c(CO)n1Cc1ccc(-c2ccccc2-c2nnn[n-]2)cc1.[K+]` [crystalline form with bound water, losartan potassium]: in series [5] (4 days in air, 60° C. or 80° C., dry atmosphere or moisture), the “Stability to temperature and moisture” value is on record as “at least as stable as amorphous”. For the same compound, the “Physical form when exposed to moisture” value in series [5] is recorded as “maintained the powdered form”. Also, the “Content of water in sample after crystallization” value in series [6] (after crystallization at 80% relative humidity) is reported as “approximately 13%”. Also, the “Relative humidity at which bound water is lost and the sample transforms into amorphous form” value in series [6] (decreasing relative humidity) is “below 20%”. Further, in series [2] (in water), the “Solubility (comparison in words)” value is “less soluble than known Form I, or amorphous losartan potassium”.
